Data: paper PMC3541179, “Structural Insights into the Dual Strategy of Recognition by Peptidoglycan Recognition Protein, PGRP-S: Structure of the Ternary Complex of PGRP-S with Lipopolysaccharide and Stearic Acid” (PLoS ONE, 2013)

Biological target: T1, CPGRP-S (camel short peptidoglycan recognition protein, PGRP-S) (Camelus dromedarius, UniProt Q9GK12)
T1 construct: gene PGLYRP1; native, purified from camel milk; full mature chain, residues 1-171, about 19-20 kDa; A-B and C-D contacts forming a linear polymer, 4 molecules in the asymmetric unit
T1 sequence (Q9GK12 23-193): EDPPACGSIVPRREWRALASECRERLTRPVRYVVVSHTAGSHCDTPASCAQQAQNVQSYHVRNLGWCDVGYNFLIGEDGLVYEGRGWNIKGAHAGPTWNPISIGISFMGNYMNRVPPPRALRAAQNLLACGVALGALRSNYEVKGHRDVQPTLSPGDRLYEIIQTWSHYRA
Experiment: X-ray crystallography (soaked crystals, […] A); SPR on immobilized protein also shows binding
Details: ternary complex with LPS at Site-1 (C-D contact); SA at Site-2 (A-B contact); crystals soaked in 70% reservoir solution and 30% ethanol
From the text: (camel short peptidoglycan recognition protein, PGRP-S) | SA is placed in the cleft at the A-B contact

SMILES: CCCCCCCCCCCCCCCCCC(=O)O [SA, stearic acid]
- X-ray crystallography (soaked crystals, 2.8 A); SPR on immobilized protein also: SA is placed in the cleft at the A–B contact
